Measurements: ChEMBL document CHEMBL1153832, “Identification and characterization of UK-201844, a novel inhibitor that interferes with human immunodeficiency virus type 1 gp160 processing” (Antimicrob Agents Chemother, 2007)

Legend:
[1] = tested on: Human immunodeficiency virus 1; experiment: Antiviral activity against HIV1 bearing HIV1 NL4-3 envelope infected in human HeLa CD4 cells coexpressing LTR/beta-Gal gene assessed as reduction in virus-induced beta-galactosidase reporter gene activity after 72 hrs by single-cycle infection assay; format: functional, organism-based; details: Human immunodeficiency virus 1, HeLa
[2] = tested on: Human immunodeficiency virus 1; experiment: Antiviral activity against HIV1 bearing VSV envelope infected in human HeLa CD4 cells coexpressing LTR/beta-Gal gene assessed as reduction in virus-induced beta-galactosidase reporter gene activity after 72 hrs by single-cycle infection assay; format: functional, organism-based; details: Human immunodeficiency virus 1, HeLa

## O=C(O)C1=CC(=C(c2ccc(O)c(C(=O)O)c2)c2ccc(O)c(C(=O)O)c2)C=CC1=O [AURINTRICARBOXYLIC ACID]
[1]
  EC50: 76 nM
[2]
  EC50: > 76000 nM
